The conditions of data set [1]: in water and across a wide range of pH; cited from earlier work.
A short description of data set [2]: Solubility of the tannate salt, seen as precipitation from the reaction solution. The format is physicochemical. The following applies: water/ethanol mixture, room temperature; salt precipitates from solution. How it is done: The completeness of the reaction and the formation of the tannate salt were followed by taking samples at different stages of the conversion process. Due to the large size of the tannate salt, it usually precipitates from solution upon formation. The absence or loss of gabapentin from solution is correlated with the formation of the tannate salt.
The conversion process used in this example to synthesize the tannate salt of gabapentin is done at room temperature as follows: 250 ml of purified water and 50 ml of ethanol are placed in a beaker. While mixing the water/ethanol mixture, tannic acid is added and mixing is continued to form a solution. While mixing the tannic acid solution, gabapentin powder is added slowly. The gabapentin reacts with the tannic acid to form the tannate salt. […] The ratio of tannic acid to gabapentin used is 0.8:1.

Like-named read-outs stand apart in the source and are kept apart here.

`NCC1(CC(=O)O)CCCCC1` [Gabapentin, 1-(aminomethyl) cyclohexaneacetic acid]: the solubility result in data set [1] was “freely soluble”. Consider gabapentin tannate, for which, in data set [2], the solubility entry was “low solubility”.

(Values after patent US20040192617A1, “Process for preparing phenolic acid salts of gabapentin” (priority 2003, published 2004).)
